The source of these data is patent US20250353873A1, “COMPOUNDS AND METHODS FOR MODULATING APOE EXPRESSION” (Ionis Pharmaceuticals, Inc., priority 2024, published 2025).

Data set [1] concerns human APOE RNA. The experiment in a line: Dose-dependent inhibition of human APOE RNA in HepG2 cells, electroporation, 50,000 cells per well, RT-PCR normalized to GAPDH (Example 4, Tables 8-10). To be noted: HepG2, electroporation, 24-hour treatment. The format is cell-based. How it is done: Modified oligonucleotides selected from the examples above were tested at various doses in HepG2 cells. The modified oligonucleotides were tested in a series of experiments that had the same culture conditions. Each experiment is identified in separate tables below.
HepG2 cells plated at a density of 50,000 cells per well were treated by electroporation with various concentrations of modified oligonucleotide as specified in the tables below. […] APOE RNA levels were measured using the human primer probe set RTS3073 (forward sequence […], designated herein as SEQ ID NO: 7; reverse sequence CCATCAGCGCCCTCAGTT, designated herein as SEQ ID NO: 8; probe sequence […], designated herein as SEQ ID NO:9). APOE RNA levels were normalized to human GAPDH. […] Results are presented as percent APOE RNA, relative to the amount of APOE RNA in untreated control cells (UTC).

The subject of data set [2] is human APOE RNA. The data set can be described thus: Activity in APOE C57BL/6NTac-Apoeem7250 knock-in mice, single ICV bolus, 4 weeks (Example 10). The settings on record: single ICV bolus 300 μg, 4 weeks post treatment, normalized to mouse Ppia. It is filed as in vivo. How it is done:
Modified oligonucleotides described above were tested in the APOE C57BL/6NTac-Apoeem7250 knock-in mouse model described above.
APOE C57BL/6NTac-Apoeem7250 knock-in mice were divided into groups of 2-4 mice each. Each mouse received a single ICV bolus of 300 μg of modified oligonucleotide. A group of 3-4 mice received a single ICV bolus with PBS as a negative control.
Four weeks post treatment, mice were sacrificed and RNA was extracted from cortical brain tissue and spinal cord for quantitative real-time RT-PCR analysis of RNA expression of APOE using human primer probe set RTS3073 (described herein above). APOE RNA levels were normalized to mouse Ppia. Mouse Ppia was amplified using primer probe set m_cyclo24 (described herein above). Results are presented as percent human APOE RNA relative to the amount of human APOE RNA in PBS treated animals, (% control). Each experiment is identified in separate tables below.

Strand notation (5' to 3'): a small letter for the sugar, then the base; units joined by * are phosphorothioate-linked, units joined directly phosphodiester-linked; [ ] holds rarer units or linkages, { } end groups; capitals alone tell only the bases. [ms] = mesyl phosphoramidate linkage; k = constrained ethyl (cEt); [5mC] = 5-methylcytosine; d = 2'-deoxy (DNA)

On to “1746793 (k[5mC]*dT[ms]dT[ms]dG[ms]kG*kT*dG[ms]dA[ms]dA[ms]dT*d[5mC]*dT*dT*dT*dA[ms]dT*kT*kA*dA[ms]kA; antisense) [Compound 1746793]”, for which the “APOE RNA (% UTC)” value with human APOE RNA [1] (5 nM) is 102 % UTC; with human APOE RNA [1] (33 nM) it was 96 % UTC; with human APOE RNA [1] (82 nM), 96 % UTC; with human APOE RNA [1] (205 nM) it was 53 % UTC; in the data set with human APOE RNA [1] (512 nM), 54 % UTC; in the data set on human APOE RNA [1] (1,280 nM), 34 % UTC. The figures for the “APOE RNA (% UTC)” value with human APOE RNA [1] (3,200 nM), in the data set on human APOE RNA [1] (8,000 nM) and with human APOE RNA [1] (20,000 nM) were 31 % UTC, 1 % UTC and 2 % UTC, respectively. The substance also returned an IC50 in the data set on human APOE RNA [1] of 560 nM. In addition, in the data set with human APOE RNA [2], the “APOE RNA (% control) Cortex” value came to 86 % control. Further, the “APOE RNA (% control) Spinal Cord” value in the data set on human APOE RNA [2] came out at 47 % control.

Regarding “1746797 (k[5mC]*kT*dT[ms]dG[ms]dG[ms]kT*dG[ms]dA[ms]dA[ms]dT*d[5mC]*dT*dT*dT*dA[ms]dT*kT*dA[ms]kA*kA; antisense) [Compound 1746797]”, the “APOE RNA (% UTC)” value in the data set on human APOE RNA [1] (5 nM) stood at 139 % UTC; in the data set on human APOE RNA [1] (13 nM) it was 128 % UTC; with human APOE RNA [1] (33 nM), 150 % UTC; in the data set with human APOE RNA [1] (82 nM) it was 143 % UTC; in the data set with human APOE RNA [1] (205 nM), 129 % UTC; in the data set with human APOE RNA [1] (512 nM) it was 113 % UTC. Further, the “APOE RNA (% UTC)” value in the data set with human APOE RNA [1] (1,280 nM) came to 71 % UTC; in the data set with human APOE RNA [1] (3,200 nM), 37 % UTC; in the data set on human APOE RNA [1] (8,000 nM), 42 % UTC; in the data set with human APOE RNA [1] (20,000 nM) it was 18 % UTC. In the data set with human APOE RNA [1], this substance registered an IC50 of 3770 nM. Further, the “APOE RNA (% control) Cortex” value in the data set with human APOE RNA [2] turned out to be 72 % control. Besides, the “APOE RNA (% control) Spinal Cord” value with human APOE RNA [2] worked out at 68 % control.

Take “1746807 (k[5mC]*kT*dT[ms]dG[ms]dG[ms]kT*dG[ms]dA[ms]dA[ms]dT*d[5mC]*dT*dT*dT*dA[ms]dT*dT[ms]kA*kA*kA; antisense) [Compound 1746807]”: the “APOE RNA (% UTC)” value in the data set on human APOE RNA [1] (5 nM) stood at 119 % UTC; in the data set on human APOE RNA [1] (13 nM), 127 % UTC; in the data set on human APOE RNA [1] (33 nM), 111 % UTC; in the data set with human APOE RNA [1] (82 nM), 86 % UTC; in the data set with human APOE RNA [1] (205 nM), 88 % UTC; in the data set with human APOE RNA [1] (512 nM), 62 % UTC. In addition, the “APOE RNA (% UTC)” value in the data set with human APOE RNA [1] (1,280 nM) is listed as 52 % UTC; in the data set on human APOE RNA [1] (3,200 nM), 29 % UTC; with human APOE RNA [1] (8,000 nM) it was 16 % UTC; in the data set with human APOE RNA [1] (20,000 nM) it was 30 % UTC. This substance registered an IC50 with human APOE RNA [1] of 1430 nM. In the data set with human APOE RNA [2], the “APOE RNA (% control) Cortex” value was determined as 90 % control. In addition, the “APOE RNA (% control) Spinal Cord” value with human APOE RNA [2] is reported as 119 % control.

For “1746792 (k[5mC]*dT[ms]dT[ms]kG*dG[ms]kT*dG[ms]dA[ms]dA[ms]dT*d[5mC]*dT*dT*dT*dA[ms]dT*kT*kA*dA[ms]kA; antisense) [Compound 1746792]”, the “APOE RNA (% UTC)” value in the data set with human APOE RNA [1] (5 nM) is recorded as 80 % UTC; in the data set on human APOE RNA [1] (13 nM) it was 102 % UTC; in the data set on human APOE RNA [1] (33 nM), 90 % UTC; in the data set on human APOE RNA [1] (82 nM), 87 % UTC; in the data set with human APOE RNA [1] (205 nM), 68 % UTC; in the data set on human APOE RNA [1] (512 nM) it was 44 % UTC. Further, the “APOE RNA (% UTC)” value is 17 % UTC with human APOE RNA [1] (1,280 nM), 12 % UTC in the data set on human APOE RNA [1] (3,200 nM), 8 % UTC in the data set with human APOE RNA [1] (8,000 nM) and 6 % UTC in the data set on human APOE RNA [1] (20,000 nM). This substance returned an IC50 in the data set on human APOE RNA [1] of 400 nM. Also, the “APOE RNA (% control) Cortex” value in the data set with human APOE RNA [2] amounted to 71 % control. Besides, the “APOE RNA (% control) Spinal Cord” value with human APOE RNA [2] amounted to 49 % control.
